As a reminder, the EC50 is the concentration giving half of the maximal effect.

Counter-ions that a name gives are not always drawn. Like-named read-outs stand apart in the source and are kept apart here.

This note sets out measurements from PMC4666645 (PLoS Pathogens, 2015).

In experiment [1] the target is Peq-26/27 receptor (Parascaris equorum, UniProt A0A0U2ES47+A0A0U2ES58). Kind of experiment: cell-based. How it is done:
In order to determine if ACR-26 and ACR-27 subunits from other parasitic nematodes species could also form functional receptors when expressed in Xenopus oocyte, Peq-acr-26 and Peq-acr-27 cRNAs from the distantly related P. equorum (Clade III) were co-injected in combination with Hco-ric-3.1, Hco-unc-74 and Hco-unc-50 cRNAs. Four days after injection, we observed robust expression of a functional AChR responding to 100 μM ACh (Fig 6B). […] This novel heteropentameric AChR was named Peq-26/27.
(§1) H. contortus and P. equorum acr-26 and acr-27 cDNAs were PCR-amplified using primers containing a restriction site in order to be sub-cloned into the expression vector pTB207 that is suitable for in vitro transcription. Primers are listed in S3 Table. The resulting plasmids were linearized with the NheI restriction enzyme (Fermantas) and used as templates for cRNA synthesis using the T7 mMessage mMachine kit (Ambion). Xenopus laevis ovaries were obtained from the University of Rennes, France (CRB Xenope) and defolliculated using 2 mg/ml collagenase type II (Gibco) in the incubation solution containing: 100 mM NaCl, 2 mM KCl, 1.8 mM CaCl2.2H2O, 1 mM MgCl2.6H2O, 5 mM HEPES, 2.5 mM C3H3NaO3, pH 7.5, supplemented with penicillin 100 U/mL and streptomycin 100 μg/mL). The oocytes were injected in the animal pole with a total volume of 36 nL of cRNA mix containing 50 ng/μL of each cRNA in RNase-free water using the Drummond nanoject II microinjector. Microinjected oocytes were kept at 20°C in incubation medium for 4 days to allow the receptors expression. Two-electrode voltage-clamp recordings were carried out using an Oocyte Clamp OC-725C amplifier (Warner instrument) in oocytes being voltage-clamped at -60mV. All agonist preparations were prepared with recording buffer (100 mM NaCl, 2.5 mM KCl, 1 mM CaCl2.2H2O, 5 mM HEPES, pH 7.3). Currents were recorded and analyzed using the pCLAMP 10.4 package (Molecular Devices).

Experiment [2] has as its target Hco-26/27 receptor (Haemonchus contortus, UniProt A9XX30+S4VAP0). Kind of experiment: cell-based.
From the text: In order to investigate if the overlapping expression contributed to functional receptors, we co-expressed Hco-ACR-26 and Hco-ACR-27 in Xenopus laevis oocytes. We have previously reported that the functional expression of nematode muscle AChRs in Xenopus oocytes requires the addition of ancillary proteins. Therefore, cRNAs encoding the subunits Hco-ACR-26 and Hco-ACR-27, in combination with three ancillary proteins (Hco-ric-3.1, Hco-unc-74 and Hco-unc-50) were co-injected into Xenopus oocytes. […] Subsequently, different cRNA combinations were injected into Xenopus oocytes in order to determine the minimal subunit combination leading to the expression of a functional receptor and verify the ancillary factor requirement.
The subunit stoichiometry has been previously reported to impact the pharmacological properties of some nematode AChRs expressed in Xenopus oocytes.
as §1

Where [3] appears, read: 100 μM agonist, normalized to 100 μM ACh current, equal subunit ratio.
Setting [4] is: read-out: Relative maximal current (Imax) normalized to 100 μM acetylcholine, cRNA ratio 1:1 26/27, 100 μM agonist.

Hco-26/27 receptor, sequence (A9XX30 entry or part of it): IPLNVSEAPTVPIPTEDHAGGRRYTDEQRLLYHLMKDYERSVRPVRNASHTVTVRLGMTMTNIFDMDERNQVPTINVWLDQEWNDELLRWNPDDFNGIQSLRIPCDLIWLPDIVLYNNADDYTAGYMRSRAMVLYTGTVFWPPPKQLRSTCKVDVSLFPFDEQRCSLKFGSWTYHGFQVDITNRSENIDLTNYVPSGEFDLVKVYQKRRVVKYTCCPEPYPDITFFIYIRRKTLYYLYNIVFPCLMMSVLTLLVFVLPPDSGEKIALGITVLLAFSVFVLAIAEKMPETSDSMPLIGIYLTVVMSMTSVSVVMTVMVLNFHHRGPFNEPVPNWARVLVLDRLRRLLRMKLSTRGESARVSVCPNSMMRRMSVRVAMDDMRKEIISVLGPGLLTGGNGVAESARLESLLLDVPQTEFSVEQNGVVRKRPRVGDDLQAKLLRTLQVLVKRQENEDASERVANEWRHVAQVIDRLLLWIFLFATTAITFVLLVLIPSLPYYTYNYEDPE
Hco-26/27 receptor, sequence (S4VAP0 entry or part of it): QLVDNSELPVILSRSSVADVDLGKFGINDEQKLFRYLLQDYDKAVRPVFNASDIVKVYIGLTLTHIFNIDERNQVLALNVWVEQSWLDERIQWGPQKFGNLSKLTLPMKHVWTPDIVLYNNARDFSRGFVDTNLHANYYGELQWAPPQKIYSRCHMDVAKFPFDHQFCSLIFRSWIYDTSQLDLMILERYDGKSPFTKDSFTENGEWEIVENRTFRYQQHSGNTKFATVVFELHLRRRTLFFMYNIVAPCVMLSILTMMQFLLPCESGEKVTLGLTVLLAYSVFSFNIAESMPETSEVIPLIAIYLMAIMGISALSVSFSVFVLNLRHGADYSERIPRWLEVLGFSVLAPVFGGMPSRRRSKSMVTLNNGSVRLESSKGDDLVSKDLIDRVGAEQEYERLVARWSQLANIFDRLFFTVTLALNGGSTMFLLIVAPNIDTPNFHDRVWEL
Peq-26/27 receptor, sequence (A0A0U2ES58 entry or part of it): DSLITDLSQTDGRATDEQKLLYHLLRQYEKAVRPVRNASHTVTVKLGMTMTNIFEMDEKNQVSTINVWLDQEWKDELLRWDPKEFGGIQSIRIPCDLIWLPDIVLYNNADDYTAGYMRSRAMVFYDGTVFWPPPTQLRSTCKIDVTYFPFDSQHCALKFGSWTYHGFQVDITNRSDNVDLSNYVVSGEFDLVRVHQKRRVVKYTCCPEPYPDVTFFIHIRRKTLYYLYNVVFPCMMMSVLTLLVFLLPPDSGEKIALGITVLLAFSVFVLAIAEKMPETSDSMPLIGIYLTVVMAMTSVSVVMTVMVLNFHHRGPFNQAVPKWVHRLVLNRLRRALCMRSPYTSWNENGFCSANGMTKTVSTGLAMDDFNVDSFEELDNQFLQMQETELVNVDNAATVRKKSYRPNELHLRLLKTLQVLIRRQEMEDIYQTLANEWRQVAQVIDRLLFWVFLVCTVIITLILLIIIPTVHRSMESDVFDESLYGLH
Peq-26/27 receptor, sequence (A0A0U2ES47 entry or part of it): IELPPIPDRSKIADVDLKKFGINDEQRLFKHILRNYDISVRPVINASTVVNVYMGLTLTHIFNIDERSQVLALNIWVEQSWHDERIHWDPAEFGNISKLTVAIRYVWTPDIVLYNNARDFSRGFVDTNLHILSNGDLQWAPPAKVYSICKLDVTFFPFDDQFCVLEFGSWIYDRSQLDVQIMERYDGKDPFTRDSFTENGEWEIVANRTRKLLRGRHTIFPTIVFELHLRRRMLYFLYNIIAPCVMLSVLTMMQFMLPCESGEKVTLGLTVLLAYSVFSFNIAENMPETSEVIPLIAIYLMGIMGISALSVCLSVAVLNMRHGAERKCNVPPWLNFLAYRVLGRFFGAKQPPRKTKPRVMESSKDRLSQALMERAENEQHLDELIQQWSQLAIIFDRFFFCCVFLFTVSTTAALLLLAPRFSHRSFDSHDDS

`CC(=O)OCC[N+](C)(C)C` [ACh, Acetylcholine chloride]: the EC50 in experiment [1] amounted to 34.9 ± 1.1 µM; in experiment [2], 80.1 ± 1.1 µM. The Emax at 100 µM is 100% in experiment [2] (cRNA ratio 1:1 26/27, 100 μM agonist, read-out: Relative maximal current (Imax) normalized to 100 μM acetylcholine); 100% in experiment [2] (cRNA ratio 1:5 26/27, 100 μM agonist, read-out: Relative maximal current (Imax) normalized to 100 μM acetylcholine); 100% in experiment [2] (cRNA ratio 5:1 26/27, 100 μM agonist, read-out: Relative maximal current (Imax) normalized to 100 μM acetylcholine).
Regarding `C[N+](C)(CCOc1ccccc1)Cc1ccccc1` [Beph, bephenium], in experiment [2] (setting [3]), the “Current elicited, % of ACh response” value is reported as “insensitive”. Besides, the Emax at 100 µM in experiment [2] (setting [4]) stood at 3.21 ± 1.61%; in experiment [2] (read-out: Relative maximal current (Imax) normalized to 100 μM acetylcholine, cRNA ratio 1:5 26/27, 100 μM agonist), 2.26 ± 2.26%.
With `CN1CCC[C@H]1c1cccnc1` [Nic, (-)-nicotine hydrogen tartrate], the “Current elicited, % of ACh response” value is “insensitive” in experiment [1] (100 μM agonist, normalized to 100 μM ACh current) and “insensitive” in experiment [2].
Regarding `CN1CCCN=C1/C=C/c1cccc(O)c1` [Oxa, oxantel], the “Current elicited, % of ACh response” value in experiment [2] (setting [3]) is listed as “insensitive”. Also, the Emax at 100 µM in experiment [2] (setting [4]) stood at 0.95 ± 0.95%.
